The supplement of paper PMC10307832

Key:
Assay in all cases: relative viability (nuclei count vs DMSO), 5 days (fraction); higher = more cells survive
[1] = compound: CN1CCN(CC1)C2=CC(=C(C=C2)NC3=NC(=C(S3)C(=O)C4=C(C=CC=C4Cl)Cl)N)OC [XMD14-99] + Nc1nc2[nH]cc(CCc3ccc(C(=O)N[C@@H](CCC(=O)O)C(=O)O)cc3)c2c(=O)[nH]1 [Pemetrexed] (partner 0.2 µM)
How it was run: (§1)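 The day after seeding in 1536-well plates, lung cancer cell lines were treated by pin tool with a single drug, or with a fixed anchor-drug dose together with five library-drug doses (not always all listed) in √10 steps. After 5 days, a combined fix-and-stain solution (final 0.05% Triton X-100, 1% formaldehyde, 1 ug/ml Hoechst) was added. Nuclei counted on 4× images gave relative viability as treated counts over vehicle counts, reported as the median of duplicate plates.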

[2] = compound: N[C@@H]1CCCN(c2c(/C=C3\SC(=O)NC3=O)cccc2-c2ccccc2)C1 [AZD1208] + COc1cccc2cc(-c3nc([C@H]4CC[C@H](C(=O)O)CC4)n4ncnc(N)c34)[nH]c12 [OSI-027] (partner 0.5 µM)
How it was run: as §1

[3] = compound: N[C@@H]1CCCN(c2c(/C=C3\SC(=O)NC3=O)cccc2-c2ccccc2)C1 [AZD1208] + Nc1ncn([C@H]2C[C@H](O)[C@@H](CO)O2)c(=O)n1 [Decitabine] (partner 2 µM)
How it was run: as §1

[4] = compound: N[C@@H]1CCCN(c2c(/C=C3\SC(=O)NC3=O)cccc2-c2ccccc2)C1 [AZD1208] + O=C(c1cc(Cc2n[nH]c(=O)c3ccccc23)ccc1F)N1CCN(C(=O)C2CC2)CC1 [Olaparib] (partner 8 µM)
How it was run: as §1

Cell Line	relative viability ([1]; first compound 0.08 µM)	relative viability ([1]; first compound 0.8 µM)	relative viability ([1]; first compound 2.53 µM)	relative viability ([1]; first compound 8 µM)	relative viability ([2]; first compound 0.08 µM)	relative viability ([2]; first compound 0.253 µM)	relative viability ([2]; first compound 0.8 µM)	relative viability ([2]; first compound 2.53 µM)	relative viability ([2]; first compound 8 µM)	relative viability ([3]; first compound 0.08 µM)	relative viability ([3]; first compound 0.253 µM)	relative viability ([3]; first compound 0.8 µM)	relative viability ([3]; first compound 2.53 µM)	relative viability ([3]; first compound 8 µM)	relative viability ([4]; first compound 0.08 µM)	relative viability ([4]; first compound 0.253 µM)	relative viability ([4]; first compound 0.8 µM)	relative viability ([4]; first compound 2.53 µM)	relative viability ([4]; first compound 8 µM)
NCI-H520	0.624	0.625	0.596	0.501	0.207	0.258	0.189	0.179	0.188	0.566	0.507	0.473	0.456	0.428	0.357	0.278	0.271	0.287	0.252
NCI-H661	0.86	0.796	0.779	0.678	0.613	0.714	0.648	0.657	0.663	0.559	0.56	0.547	0.502	0.51	0.762	0.754	0.728	0.745	0.758
NCI-H1793	0.947	1	0.83	0.631	0.244	0.254	0.268	0.31	0.25	0.447	0.448	0.509	0.463	0.363	0.878	0.649	0.767	0.744	0.675
NCI-H1734	0.42	0.409	0.406	0.4	0.51	0.534	0.495	0.468	0.342	0.534	0.466	0.44	0.424	0.409	0.679	0.575	0.554	0.544	0.449
LXF-289	0.692	0.862	0.85	0.781	0.821	0.814	0.602	0.647	0.648	0.36	0.423	0.378	0.36	0.289	1.03	1.23	1.06	1.03	1.01
H3255	0.558	0.526	0.518	0.433	0.506	0.54	0.429	0.491	0.543	0.689	0.714	0.56	0.589	0.523	0.593	0.611	0.557	0.597	0.569
201T	0.331	0.356	0.32	0.281	0.81	0.78	0.512	0.53	0.477	0.886	0.868	0.855	0.97	0.893	0.876	0.84	0.866	0.868	0.909
HOP-62	0.368	0.364	0.36	0.331	0.863	0.965	0.726	0.642	0.632	0.231	0.212	0.22	0.254	0.24	0.39	0.417	0.326	0.341	0.37
NCI-H596	0.465	0.48	0.447	0.494	0.666	0.817	0.62	0.56	0.359	0.847	1.01	0.901	0.902	0.756	0.706	0.563	0.717	0.632	0.564
NCI-H1755	0.419	0.378	0.37	0.391	0.69	0.617	0.582	0.59	0.437	0.695	0.675	0.723	0.713	0.625	0.835	0.83	0.841	0.849	0.66
NCI-H2085	0.9	0.899	0.839	0.65	0.796	0.933	0.585	0.934	0.661	0.555	0.491	0.587	0.544	0.449	0.769	0.913	0.79	0.764	0.849
NCI-H2023	0.249	0.249	0.224	0.167	0.342	0.339	0.324	0.316	0.253	0.232	0.193	0.199	0.206	0.225	0.473	0.51	0.416	0.44	0.366
